Assay results from patent US12673052B2, “Combinations for the treatment of cancer” (Exelixis, Inc., priority 2020, dated 2026).
Like-named read-outs stand apart in the source and are kept apart here.

Key:
[1] = Liver microsomal stability assay; type: in vitro ADME, mouse; details: liver microsomes
Experimental: (§1) In the liver microsomal stability assay, CLint was 0.601 mL/min/g liver in mouse, 0.563 mL/min/g liver in rat, 0.315 mL/min/g liver in dog, 0.734 mL/min/g liver in monkey, and 0.639 mL/min/g liver in human. In the hepatocyte stability assay, Compound 1 CLint was 0.373 mL/min/g liver in mouse, 0.285 mL/min/g liver in rat, 1.08 mL/min/g liver in dog, 0.533 mL/min/g liver in monkey, and 0.317 mL/min/g liver in human.

[2] = Hepatocyte stability assay; type: in vitro ADME, dog; details: hepatocytes
Experimental: (§2) The mean plasma t1/2, z values were approximately 9 hours in rats and 4 hours in dogs. Interspecies scaling based on body weight to predict PK parameters in humans could not be performed because dogs (larger species) cleared Compound 1 faster than rats (smaller species). Therefore, the human PK was projected based on one species (rat). […] This apparent clearance value (CL/F) was used to predict steady-state exposure (AUC and average plasma concentration [Cavg]) in humans for the proposed first-in-human (FIH) starting dose for Study Compound 1-001.
as §1

UGT1A9 = biological target: T1, UGT1A9 (Homo sapiens, UniProt O60656); assay: CYP/UGT substrate specificity (recombinant Supersomes, chemical inhibitors in human liver microsomes); type: in vitro ADME
T1 construct: purchased; host or cells: recombinant Supersomes; human liver microsomes
T1 sequence (O60656 26-530): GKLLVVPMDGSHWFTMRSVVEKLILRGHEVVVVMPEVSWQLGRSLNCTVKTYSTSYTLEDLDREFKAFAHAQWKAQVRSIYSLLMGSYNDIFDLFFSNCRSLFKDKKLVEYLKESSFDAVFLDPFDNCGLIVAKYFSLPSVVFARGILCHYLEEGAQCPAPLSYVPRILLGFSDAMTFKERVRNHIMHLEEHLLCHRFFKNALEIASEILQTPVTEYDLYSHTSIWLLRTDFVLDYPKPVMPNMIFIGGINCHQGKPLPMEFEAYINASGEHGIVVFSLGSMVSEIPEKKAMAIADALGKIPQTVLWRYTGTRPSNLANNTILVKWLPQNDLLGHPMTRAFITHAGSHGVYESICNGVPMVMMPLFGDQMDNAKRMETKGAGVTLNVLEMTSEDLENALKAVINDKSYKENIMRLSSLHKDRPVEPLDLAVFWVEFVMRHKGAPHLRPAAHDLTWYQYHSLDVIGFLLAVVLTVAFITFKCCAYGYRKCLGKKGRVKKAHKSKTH
Experimental: (§3) Plasma PK of Compound 1 was characterized in rats and beagle dogs. Toxicokinetic (TK) evaluations of oral Compound 1 were evaluated in repeat-dose studies in rats and dogs. Plasma protein binding was determined in mouse, rat, dog, monkey, and human plasma in vitro. Biotransformation and metabolite profiling of Compound 1 were investigated in vitro using mouse, rat, dog, monkey, and human liver microsomal fractions and hepatocytes and in vivo in rats and dogs. P-glycoprotein (P-gp) and breast cancer resistance protein (BCRP) transporter interaction studies, in vitro experiments evaluating cytochrome P450 (CYP) induction and inhibition by Compound 1, and CYP and glucuronosyltransferase (UGT) substrate specificity studies of Compound 1 were also performed.

CYP2C19 = assay: as above; type: in vitro ADME
Experimental: as §3

CYP1A2 = assay: as above; type: in vitro ADME
Experimental: as §3

CYP2C9 = assay: as above; type: in vitro ADME
Experimental: as §3

UGT2B7 = biological target: T2, UGT2B7 (Homo sapiens, UniProt P16662); assay: as above; type: in vitro ADME
T2 construct: purchased; host or cells: recombinant Supersomes; human liver microsomes
T2 sequence (P16662 24-529): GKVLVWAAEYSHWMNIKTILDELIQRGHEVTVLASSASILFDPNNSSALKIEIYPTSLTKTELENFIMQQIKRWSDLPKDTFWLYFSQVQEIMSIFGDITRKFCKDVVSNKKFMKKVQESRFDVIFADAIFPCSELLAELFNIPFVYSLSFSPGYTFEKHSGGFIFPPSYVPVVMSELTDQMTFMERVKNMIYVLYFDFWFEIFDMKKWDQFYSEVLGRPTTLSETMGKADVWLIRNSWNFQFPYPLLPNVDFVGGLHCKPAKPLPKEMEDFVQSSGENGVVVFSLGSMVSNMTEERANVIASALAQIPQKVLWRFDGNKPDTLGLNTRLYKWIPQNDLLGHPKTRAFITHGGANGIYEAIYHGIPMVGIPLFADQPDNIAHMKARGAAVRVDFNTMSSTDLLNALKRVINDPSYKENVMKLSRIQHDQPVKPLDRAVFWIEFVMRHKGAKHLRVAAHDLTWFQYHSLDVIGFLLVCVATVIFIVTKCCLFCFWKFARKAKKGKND
Experimental: as §3

CYP3A4 = assay: as above; type: in vitro ADME
Experimental: as §3

CYP2B6 = assay: as above; type: in vitro ADME
Experimental: as §3

UGT1A4 = biological target: T3, UGT1A4 (Homo sapiens, UniProt P22310); assay: as above; type: in vitro ADME
T3 construct: purchased; host or cells: recombinant Supersomes; human liver microsomes
Experimental: as §3

UGT1A1 = biological target: T4, UGT1A1 (Homo sapiens, UniProt P22309); assay: as above; type: in vitro ADME
T4 construct: purchased; host or cells: recombinant Supersomes; human liver microsomes
T4 sequence (P22309 26-533): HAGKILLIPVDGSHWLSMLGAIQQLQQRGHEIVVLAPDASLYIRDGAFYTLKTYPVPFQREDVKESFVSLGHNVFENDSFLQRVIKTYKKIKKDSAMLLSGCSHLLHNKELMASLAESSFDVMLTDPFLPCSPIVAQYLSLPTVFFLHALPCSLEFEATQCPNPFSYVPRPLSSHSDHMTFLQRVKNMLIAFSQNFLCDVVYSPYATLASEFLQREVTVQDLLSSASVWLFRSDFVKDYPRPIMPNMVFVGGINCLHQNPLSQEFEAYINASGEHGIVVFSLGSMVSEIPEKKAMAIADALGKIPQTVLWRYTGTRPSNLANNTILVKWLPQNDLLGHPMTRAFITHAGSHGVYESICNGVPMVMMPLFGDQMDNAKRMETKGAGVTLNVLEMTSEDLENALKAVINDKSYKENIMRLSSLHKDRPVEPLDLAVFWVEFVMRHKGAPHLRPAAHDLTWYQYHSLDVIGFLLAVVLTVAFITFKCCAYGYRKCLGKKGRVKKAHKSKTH
Experimental: as §3

CYP2C8 = assay: as above; type: in vitro ADME
Experimental: as §3

P-gp = P-gp (Homo sapiens, UniProt P08183); assay: Transporter interaction study (substrate and inhibition); type: in vitro ADME
Sequence of P-gp (P08183 whole entry): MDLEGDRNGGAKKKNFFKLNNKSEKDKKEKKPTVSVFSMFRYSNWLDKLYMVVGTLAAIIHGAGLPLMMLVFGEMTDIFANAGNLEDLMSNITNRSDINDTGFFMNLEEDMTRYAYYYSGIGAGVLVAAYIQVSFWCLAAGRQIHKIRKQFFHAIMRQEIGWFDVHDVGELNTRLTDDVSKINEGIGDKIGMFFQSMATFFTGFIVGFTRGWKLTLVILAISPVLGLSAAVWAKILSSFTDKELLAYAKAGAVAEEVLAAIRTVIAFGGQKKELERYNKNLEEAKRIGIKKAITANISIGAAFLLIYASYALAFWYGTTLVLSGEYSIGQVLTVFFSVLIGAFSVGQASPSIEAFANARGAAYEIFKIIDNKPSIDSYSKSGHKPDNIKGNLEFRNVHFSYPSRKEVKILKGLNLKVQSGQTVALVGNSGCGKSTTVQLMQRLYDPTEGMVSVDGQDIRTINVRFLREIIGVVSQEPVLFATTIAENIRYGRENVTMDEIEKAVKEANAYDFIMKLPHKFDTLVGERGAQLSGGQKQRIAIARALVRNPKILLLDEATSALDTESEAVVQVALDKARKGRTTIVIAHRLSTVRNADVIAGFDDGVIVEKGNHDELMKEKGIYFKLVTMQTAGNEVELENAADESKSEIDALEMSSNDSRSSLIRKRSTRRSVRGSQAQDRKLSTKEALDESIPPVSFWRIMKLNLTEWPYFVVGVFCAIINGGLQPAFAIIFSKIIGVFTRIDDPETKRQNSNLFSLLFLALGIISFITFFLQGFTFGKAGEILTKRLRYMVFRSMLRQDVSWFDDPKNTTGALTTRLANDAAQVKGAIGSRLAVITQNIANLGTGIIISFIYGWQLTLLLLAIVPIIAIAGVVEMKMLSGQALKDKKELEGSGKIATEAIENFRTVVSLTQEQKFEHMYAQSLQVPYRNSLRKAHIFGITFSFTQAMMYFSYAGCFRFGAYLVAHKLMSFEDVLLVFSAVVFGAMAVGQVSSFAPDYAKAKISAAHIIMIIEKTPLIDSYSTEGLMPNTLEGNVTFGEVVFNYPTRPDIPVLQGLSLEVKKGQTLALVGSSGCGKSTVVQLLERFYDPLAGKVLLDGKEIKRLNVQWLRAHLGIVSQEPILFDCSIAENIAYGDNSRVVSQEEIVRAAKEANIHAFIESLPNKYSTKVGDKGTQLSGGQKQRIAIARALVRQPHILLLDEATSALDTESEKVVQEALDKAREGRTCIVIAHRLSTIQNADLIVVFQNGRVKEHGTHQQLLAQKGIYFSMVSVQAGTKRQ
Experimental: as §3

BCRP = BCRP (Homo sapiens, UniProt Q9UNQ0); assay: as above; type: in vitro ADME
Sequence of BCRP (Q9UNQ0 whole entry): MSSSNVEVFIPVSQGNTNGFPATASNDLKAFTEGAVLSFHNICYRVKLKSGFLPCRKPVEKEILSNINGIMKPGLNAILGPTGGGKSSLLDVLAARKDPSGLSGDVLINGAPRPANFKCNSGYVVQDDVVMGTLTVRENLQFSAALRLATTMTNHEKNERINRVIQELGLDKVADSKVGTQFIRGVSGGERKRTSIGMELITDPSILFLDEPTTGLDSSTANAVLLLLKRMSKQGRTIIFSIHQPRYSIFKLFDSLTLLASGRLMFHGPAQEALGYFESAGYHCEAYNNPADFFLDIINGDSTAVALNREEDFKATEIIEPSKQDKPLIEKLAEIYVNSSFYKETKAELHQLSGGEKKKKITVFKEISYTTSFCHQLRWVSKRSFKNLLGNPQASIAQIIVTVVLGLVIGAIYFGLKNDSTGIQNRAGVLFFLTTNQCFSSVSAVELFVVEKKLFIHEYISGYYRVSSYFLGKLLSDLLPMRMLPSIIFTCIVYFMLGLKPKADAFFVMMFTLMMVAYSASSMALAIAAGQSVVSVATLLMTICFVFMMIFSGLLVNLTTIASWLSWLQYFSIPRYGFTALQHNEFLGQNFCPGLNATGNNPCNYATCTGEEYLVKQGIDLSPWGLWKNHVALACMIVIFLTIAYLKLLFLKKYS
Experimental: as §3

[3] = Liver microsomal stability assay; type: in vitro ADME, rat; details: liver microsomes
Experimental: as §1

MET = MET (Homo sapiens, UniProt P08581); assay: In vivo target modulation: MET phosphorylation by Western blot in SNU-5 xenografts; set-up: endogenous in cells; host or cells: SNU-5 human tumour xenografts in CB.17 SCID mice; species or system CB.17 SCID mice; details: for Compound 1 Plasma Exposure: qd × 14, 4 hours after last dose on Day 14
Sequence of MET (P08581 25-1390): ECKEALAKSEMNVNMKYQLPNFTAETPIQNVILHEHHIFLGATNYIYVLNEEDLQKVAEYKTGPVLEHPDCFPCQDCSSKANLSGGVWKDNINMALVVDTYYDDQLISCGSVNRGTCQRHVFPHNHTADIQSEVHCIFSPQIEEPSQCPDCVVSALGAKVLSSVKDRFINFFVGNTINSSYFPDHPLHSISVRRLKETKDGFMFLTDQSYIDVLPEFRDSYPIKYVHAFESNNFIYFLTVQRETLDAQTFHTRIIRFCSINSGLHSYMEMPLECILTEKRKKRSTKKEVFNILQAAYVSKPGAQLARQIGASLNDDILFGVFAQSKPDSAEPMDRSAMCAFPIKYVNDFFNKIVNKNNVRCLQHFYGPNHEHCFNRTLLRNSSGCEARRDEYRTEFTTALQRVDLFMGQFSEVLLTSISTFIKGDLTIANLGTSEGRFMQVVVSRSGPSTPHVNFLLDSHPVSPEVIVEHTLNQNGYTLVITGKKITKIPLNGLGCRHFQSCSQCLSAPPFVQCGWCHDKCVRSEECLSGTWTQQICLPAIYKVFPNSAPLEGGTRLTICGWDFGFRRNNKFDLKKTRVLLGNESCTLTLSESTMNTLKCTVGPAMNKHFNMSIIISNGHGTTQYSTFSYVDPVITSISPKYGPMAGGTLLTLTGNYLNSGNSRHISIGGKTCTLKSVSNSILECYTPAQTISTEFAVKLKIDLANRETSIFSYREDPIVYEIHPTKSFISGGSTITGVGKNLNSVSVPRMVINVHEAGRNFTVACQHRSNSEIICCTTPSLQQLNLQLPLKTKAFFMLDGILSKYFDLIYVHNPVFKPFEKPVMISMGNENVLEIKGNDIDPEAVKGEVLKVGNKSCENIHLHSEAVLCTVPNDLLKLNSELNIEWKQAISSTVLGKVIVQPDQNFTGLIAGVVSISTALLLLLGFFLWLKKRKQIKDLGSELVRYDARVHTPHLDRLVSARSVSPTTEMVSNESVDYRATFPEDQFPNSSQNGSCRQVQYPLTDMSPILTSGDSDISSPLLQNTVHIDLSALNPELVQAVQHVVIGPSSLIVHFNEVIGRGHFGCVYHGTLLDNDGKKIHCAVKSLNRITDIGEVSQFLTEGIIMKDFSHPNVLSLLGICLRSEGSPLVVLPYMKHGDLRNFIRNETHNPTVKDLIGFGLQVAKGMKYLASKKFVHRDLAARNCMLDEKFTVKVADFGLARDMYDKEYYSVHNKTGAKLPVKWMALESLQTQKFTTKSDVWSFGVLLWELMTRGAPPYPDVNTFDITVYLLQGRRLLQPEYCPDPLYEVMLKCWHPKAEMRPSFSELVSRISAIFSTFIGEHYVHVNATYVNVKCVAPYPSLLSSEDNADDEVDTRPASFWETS
Experimental: Three human tumor cell lines, NCI-H441, MDA-MB-231, and SNU-5, were selected for use in tumor xenograft studies using athymic nude, NSG and CB.17 SCID mice, respectively. Pharmacodynamic modulation of MET phosphorylation was also measured in the NCI-H441 and SNU-5 xenografts. Tumor-bearing mice were orally dosed once-daily for 14 days (qd×14), and the tumors were resected and processed for MET phosphorylation analysis by Western blot. […]

[4] = Single-dose plasma PK, IV and oral (PEG 400:EtOH:RO water); type: in vivo, rats
Experimental: as §3
The PK and TK of Compound 1 were assessed in rats and dogs after intravenous (IV; only single dose PK) and oral (PO) administration of Compound 1 in formulations prepared in polyethylene glycol 400 (PEG 400): ethanol (EtOH): reverse osmosis water (RO Water) (45:5:50 v/v/v).
Median time to maximum plasma concentration (Tmax) occurred at approximately 2-3 hours in rats and dogs.
as §2

[5] = Repeat-dose toxicity studies (7-day range-finding, definitive 28-day, 14-day recovery); type: in vivo, rats
Experimental: The nonclinical toxicity of Compound 1 was characterized in dose range-finding 7-day and definitive 28-day repeat-dose studies in rats and dogs, and in in vitro bacterial and mammalian genotoxicity bioassays. Compound 1 was also evaluated in definitive neurobehavioral, respiratory and cardiovascular safety pharmacology studies.
Following a 2-week recovery phase, increased physeal thickness and tooth degeneration persisted but were less severe. These findings are consistent with an on-target pharmacologic VEGFR inhibition by Compound 1.
These microscopic lesions were fully reversible following a 14-day recovery period, and were associated with correlative reversible changes in clinical chemistry markers of hepatic function (eg, <2-fold increase in AST and <5-fold increase in ALT at 10 mg/kg/day).

[6] = Hepatocyte stability assay; type: in vitro ADME, monkey; details: hepatocytes
Experimental: as §1

[7] = SNU-5, mouse, po, read-out: p-MET Inhibition %
[8] = 10 mg/kg/day, daily for 4 weeks, reversible

CNC(=O)c1cc2c(Oc3ccc(NC(=O)C4(C(=O)Nc5ccc(F)cc5)CC4)cc3)ccnc2cc1OC [Compound 1, 1-N′-(4-Fluorophenvl)-1-N-[4-[7-methoxy-6-(methylcarbamovl)quinolin-4-yl]oxyphenyl]cyclopropane-1,1-dicarboxamide]
CLint [1]: 0.601 mL/min/g liver | CLint [2]: 1.08 mL/min/g liver | substrate of enzyme (UGT1A9): not to be a substrate | substrate of enzyme (CYP2C19): not to be a substrate | substrate of enzyme (CYP1A2): not to be a substrate | substrate of enzyme (CYP2C9): weaker substrate | substrate of enzyme (UGT2B7): not to be a substrate | substrate of enzyme (CYP3A4): sensitive substrate | substrate of enzyme (CYP2B6): not to be a substrate | role in Compound 1 metabolism (UGT1A4): may play a minor role | substrate of enzyme (UGT1A1): not to be a substrate | role in the metabolism of Compound 1 (CYP2C8): only a minor role | substrate of transporter (P-gp): not to be a substrate | IC50 (P-gp; strong inhibitor): 59 nM | substrate of transporter (BCRP): not to be a substrate | IC50 (BCRP; strong inhibitor): 189 nM | CLint [3]: 0.563 mL/min/g liver | Compound 1 Plasma Exposure (MET; 3 mg/kg): 1.88 µM | Compound 1 Plasma Exposure (MET; 10 mg/kg): 7.64 µM | inhibition at 3 mg/kg (MET; [7]): 26% | inhibition at 10 mg/kg (MET; [7]): 67% | bioavailability ([4]; rat, plasma, po, 0.09-0.27 mg/kg, read-out: Oral absolute bioavailability): 62 to 77% | half-life ([4]; rat, plasma, after oral administration, read-out: terminal phase half-life (t1/2, z)): 4.5 to 5.3 h | Tmax ([4]; rat, plasma, single oral dose, read-out: Median time to maximum plasma concentration (Tmax)): 2 to 3 h | clearance ([4]; rat, plasma, single-dose IV 0.09-0.27 mg/kg, read-out: mean plasma clearance (CL) (converted)): 0.39 mL/min/kg | half-life ([4]; rat, plasma, single-dose IV, read-out: mean plasma t1/2, z (converted)): ~9 h | Vd ([4]; rat, plasma, single-dose IV, read-out: mean volume of distribution at steady-state (Vss)): 0.167 L/kg | increase of exposure (Cmax and AUC0-inf) with dose ([4]; single oral doses 0.09-0.27 mg/kg): approximately dose proportionally | histopathologic changes in female reproductive tract tissues ([5]; 10 mg/kg/day for 4 weeks, appeared reversible): increased size and number of regressing corpora lutea in ovarian tissue and a higher frequency of dilated uteri | hepatobiliary histologic findings ([5]; 10 mg/kg/day, 4 weeks, minimal to mild severity, fully reversible after 14-day recovery): bile duct inflammation and hyperplasia, and individual hepatocyte necrosis | increase in ALT [5, 8]: < 5 fold | increase in AST [5, 8]: < 2 fold | reversibility of adverse findings ([5]; 14-day non-treatment recovery period): partially or completely reversible | highest non-severely toxic dose (HNSTD) ([5]; GLP 4-week toxicity study, highest dose tested): 10 mg/kg qd | ophthalmic findings ([5]; daily for 4 weeks): No adverse ophthalmic findings | histomorphologic findings in bone and teeth ([5]; daily for 4 weeks, >3 mg/kg/day, persisted but less severe after 2-week recovery): increased physeal thickness of the femur and degeneration of the tooth dentin and enamel | nasal turbinate histologic findings ([5]; recovery cohort, 10 mg/kg/day 4 weeks + 14-day non-treatment, females minimal-moderate, males slight-moderate): proliferation of nasal turbinate bone | bone marrow microscopic findings ([5]; repeat-dose): minimal severity decreased bone marrow cellularity | cholesterol and triglyceride levels ([5]; repeat-dose): Increased cholesterol and triglyceride levels | reticulocytes ([5]; repeat-dose): transient decreases in reticulocytes | spleen findings ([5]; repeat-dose): Extramedullary hematopoiesis (minimal) and increased lymphocytes (minimal-slight) | CLint [6]: 0.533 mL/min/g liver
